We go through one compound from patent US20250127759A1, “METHODS AND DOSING REGIMENS COMPRISING A CDK2 INHIBITOR FOR THE TREATMENT OF CANCER” (PFIZER INC., priority 2021, published 2025).

One data set relates to ST941PBR PDX. The experiment in a line: In vivo efficacy, palbociclib-resistant ST941PBR PDX model. The following applies: Day 28, 150 mg/kg BID PO, 150 mg/kg.
The test system of data set [1] is phosphorylation of Rb at Ser807/811. The experiment in a line: Modulation of pRb Ser807/811 in OVCAR3 cells. It counts as cell-based. The following applies: Homo sapiens, OVCAR-3; enriched G1/S phase CCNE1-amplified OVCAR3 cells; mean; read-out: Modulation of pRB Serine 807/811 IC50. The protocol: The cellular activity of PF-07104091 was evaluated by measuring phosphorylation of Rb at Ser807/811 following treatment of enriched G1/S phase CCNE1-amplified OVCAR3 ovarian carcinoma cells.

Data set [2] can be described thus: Nonclinical toxicity study, dog. It counts as in vivo. Here is the method:
(§1) The selection of the starting dose and regimen was based on the nonclinical toxicology and PK results in accordance with the ICH S9 Guidance. Results from nonclinical toxicity studies indicate the STD10 of PF-07104091 in mouse was 150 mg/kg after BID oral administration. The human equivalent dose for the STD10 in mouse is approximately 729 mg BID (assuming a body weight of 60 kg). Per ICH-S9 guidance, one-tenth of the STD10 can be considered the appropriate starting dose. Given the predicted human t % of approximately 4 hours, the starting dose has been selected to be 75 mg BID. The human AUC0-12 hr of PF-07104091 at the proposed starting oral dose of 75 mg BID is predicted to be ˜6.5% of the observed AUC0-12 hr at the STD10 in mouse (150 mg/kg BID) and ˜80% of the observed AUC0-12 hr at the HNSTD in dog (15 mg/kg BID).

Data set [3] is described as follows: In vivo efficacy, MCF7 breast cancer model. The following applies: female, mouse, NSG mice, po, BID, read-out: maximum tolerated dose level. The protocol: (§2) Female NSG (Jackson Lab) or Nu/nu (CRL) were subcutaneously implanted with tumor cells or fragments (8 mm^3 to 27 mm^3) into the dorsal region. For the MCF7 study, mice were supplemented with estrogen (sc implanted, 17β-estradiol, 0.36 mg, 90-day release pellet, Innovative Research of America, cat no. NE-121).
The MCF7 model was established by implanting donor tumor fragments into recipient mice. To establish the MCF7 donor mice, tumor cells (5×10^6 cells/mouse with 50% Cultrex® Basement Membrane Matrix) were subcutaneously implanted in female NSG mice. […] 150 mg/kg, po, BID is the maximum tolerated dose level in this model. PF 07104091 was administered (p.o.) BID (7 hr apart). TGI was assessed on Day 21 post first dose (or Day 42 post tumor fragment implant).

In another data set the test system is OVCAR3 cells. As to the kind of experiment: Cell cycle distribution and DNA synthesis, OVCAR3. It counts as cell-based. The settings on record: 72-hour treatment with 300 nM. Here is the method: (§3) The effect of PF-07104091 on cell cycle distribution and DNA synthesis was determined following 72-hour treatment with 300 nM PF-07104091.
Data set [4] can be described thus: Predicted human pharmacokinetics for starting dose. Here is the method:
as §1

Another data set relates to NCI-H526 Model. As to the kind of experiment: In vivo efficacy, NCI-H526 small cell lung cancer model. Also on record: species or system mice. The following applies: Day 15. Here is the method: as §2
To establish the NCI-H526 model, tumor cells (4×10^6 cells/mouse with 50% Cultrex® Basement Membrane Matrix) were subcutaneously implanted in female Nu/nu mice. […] PF-07104091, Palbociclib at 10 mg/kg and CDK 2/4/6 inhibitor were administered (p.o.) BID (7 hr apart). TGI was assessed on Day 15 post first dose (or Day 20 post tumor cell implant).

The subject of the next data set is MCF7-PalboR cells. The experiment in a line: Cell cycle distribution and DNA synthesis, MCF7-PalboR. The class given is cell-based. The following applies: 72-hour treatment with 300 nM. Here is the method: as §3
Data set [5] deals with MCF7-PalboR (resistant to palbociclib). As to the kind of experiment: Proliferation inhibition, MCF7-PalboR. The following applies: 168 h, read-out: Proliferation Inhibition IC50. The class given is cell-based. Here is the method:
Anti-proliferative activity was measured in cells treated for 7 days with PF-07104091 in OVCAR3 cells, Rb mutant NCI-H526 SCLC cells, and both HR-positive HER2-negative MCF7 and the subline MCF7-PalboR (resistant to palbociclib).
The MCF7-PalboR cell model is refractory to palbociclib-induced proliferative inhibition at doses up to […], which exceeds the concentration expected to inhibit CDK4 and CDK6.

The subject of another data set is HCC1428. As to the kind of experiment: In vivo efficacy, HCC1428 breast cancer model. The following applies: Day 42, 150 mg/kg BID PO, 150 mg/kg. Also noted: species or system mice. The protocol:
The HCC1428 model was established by implanting passage 4 tumor fragments into recipient mice. To establish the HCC1428 donor mice, tumor cells (5×10^6 cell/mouse with 50% Cultrex® Basement Membrane Matrix) were subcutaneously implanted in female NSG mice. […] All mice received treatment continuously until Day 42. TGI was assessed on Day 42 post first dose.

A short description of data set [6]: Nonclinical toxicity study, mouse. It counts as in vivo. The protocol:
as §1

A further data set deals with NCI-H526 cells. The experiment in a line: Cell cycle distribution and DNA synthesis, NCI-H526. It counts as cell-based. The settings on record: 72-hour treatment with 300 nM. The protocol:
as §3

Method for ST941PBR PDX: Female NSG mice (Jackson Lab) were subcutaneously implanted with fragment (27 mm^3 to 64 mm^3 size) into the dorsal region. All mice for T47D, HCC1428 and ST941 PBR studies were supplemented with 8.5 μg/mL estradiol water (β-Estradiol Sigma-Aldrich, cat #E2758-5G) and gave ad libitum till end of study. For the in vivo efficacy studies, tumor volume and body weights were measured twice a week. Tumor volume was calculated using the [(Length×Width×Width)/2)] formula. TGI was calculated as 100*(1−ΔT/ΔC). The ΔC (ΔT) was obtained by subtracting the mean tumor burden in the vehicle (treated) group on the first day of treatment (Day 0) from the mean tumor burden in vehicle (treated) group on the assessment day. Statistical analysis was performed using ANCOVA when the mean tumor volume in vehicle treated mice reached tumor cutoff size.
The ST941 PBR palbociclib resistant model was obtained from XENOSTART™ LLC, San Antonio, Texas. We established model in house by continuous treatment of the ST941 PBR tumor bearing mice with PD-0332991 at 50 mg/kg, PO QD plus fulvestrant at 10 mg/kg, SC twice in the first week, then weekly thereafter. To propagate donors for the TGI study, tumors were transplanted to recipient mice. One week after the re-implantation, the recipient mice received continuous treatment with palbociclib plus fulvestrant (dosing schedule described above). After 1 to 2 serial in vivo propagation with the same treatment regimen, the resistant tumors in the range of 700 to 800 mm^3 were re-implanted for a study expansion. The remaining tumor fragments were viably frozen for future use.
The live donor mice were established by implanting ST941 PBR (p11) tumor fragments. Once reaching a range of 700 to 800 mm^3, the donor tumors were subsequently transplanted into secondary recipient mice for a study expansion. To maintain the resistant clones, the ST941 PBR tumor bearing mice were treated with PD-0332991 at 50 mg/kg, PO. QD plus fulvestrant at 10 mg/kg, SC twice in the first week, then weekly afterwards for 10 weeks. […] TGI was assessed on Day 28 post first dose.

Turning to `COCc1cc(C(=O)Nc2cc([C@H]3CC[C@@H](OC(=O)NC(C)C)C3)[nH]n2)n(C)n1` [PF-07104091, (1R,3S)-3-[3-({[3-(methoxymethyl)-1-methyl-1H-pyrazol-5-yl]carbonyl}amino)-1H-pyrazol-5-yl]cyclopentyl propan-2-ylcarbamate], the TGI % with ST941PBR PDX is given as 34%; in the data set with NCI-H526 Model (25 mg/kg BID PO), 44%; in the data set with NCI-H526 Model (75 mg/kg BID PO), 45%; in the data set with HCC1428 it was 95%. In addition, the IC50 in data set [1] was 0.144 µM; in data set [5], 0.68 µM. In addition, the HNSTD in data set [2] is on record as 15 mg/kg BID. Further, the MTD at 21 days in data set [3] was found to be 150 mg/kg. Moreover, the cell cycle arrest entry in the data set on OVCAR3 cells is “Significant G1 arrest”; with MCF7-PalboR cells, “significant G2/M arrest”; with NCI-H526 cells it was “significant G2/M arrest”. Besides, the “S phase (cell cycle distribution)” value is given as “Significant S phase reduction” in the data set with OVCAR3 cells (p≤0.05 versus vehicle), “Significant S phase reduction” in the data set on MCF7-PalboR cells (p≤0.05 versus vehicle) and “trended towards significance” with NCI-H526 cells (p=0.057). Besides, the “predicted human AUC0-12 hr as % of observed AUC0-12 hr at the HNSTD in dog” value in data set [4] (human 75 mg BID oral vs dog 15 mg/kg BID) was around 80%. Moreover, in data set [4] (human 75 mg BID oral vs mouse 150 mg/kg BID), the “predicted human AUC0-12 hr as % of observed AUC0-12 hr at the STD10 in mouse” value was around 6.5%. For the same compound, the “predicted human t %” value in data set [4] (human, predicted) is “approximately 4 hours”. Also, in data set [6] (assuming a body weight of 60 kg), the “human equivalent dose for the STD10 in mouse” value is recorded as “approximately 729 mg BID”. Further, the STD10 in data set [6] (mouse, BID oral administration) is 150 mg/kg.
